The target of the assay is T1, estrogen receptor α (ERα) (Homo sapiens, UniProt P03372).
T1 construct: gene ESR1; full-length human ESR1 (ERα), transiently expressed in HEK293T cells
T1 sequence (P03372 1-595): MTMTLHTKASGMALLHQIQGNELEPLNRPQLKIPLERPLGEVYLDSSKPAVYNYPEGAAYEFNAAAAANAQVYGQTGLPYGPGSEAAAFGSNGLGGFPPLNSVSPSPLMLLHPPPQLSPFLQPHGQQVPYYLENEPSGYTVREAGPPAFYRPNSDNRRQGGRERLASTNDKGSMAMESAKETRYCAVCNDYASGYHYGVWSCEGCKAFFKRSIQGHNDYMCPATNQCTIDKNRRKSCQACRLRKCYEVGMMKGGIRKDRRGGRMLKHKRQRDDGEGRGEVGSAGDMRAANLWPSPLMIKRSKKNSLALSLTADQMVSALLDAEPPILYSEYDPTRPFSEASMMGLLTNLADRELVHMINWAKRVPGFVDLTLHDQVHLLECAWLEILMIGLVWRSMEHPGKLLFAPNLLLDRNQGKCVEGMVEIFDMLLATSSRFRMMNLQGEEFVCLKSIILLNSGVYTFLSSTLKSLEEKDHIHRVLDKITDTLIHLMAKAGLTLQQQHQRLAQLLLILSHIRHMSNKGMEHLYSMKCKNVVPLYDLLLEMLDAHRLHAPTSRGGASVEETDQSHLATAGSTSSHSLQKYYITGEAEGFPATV
Briefly: radioligand saturation binding with Scatchard analysis in ERα-transfected HEK293T cells. It is filed as cell-based.

For orientation: Kd means the free concentration of one partner at which half of the binding sites on the other are occupied at equilibrium, for simple one-to-one binding. Lower therefore signals higher affinity.

The compound `C[C@]12CC[C@@H]3c4ccc(O)cc4CC[C@H]3[C@@H]1C[C@@H](F)[C@@H]2O` [[18F]FES, 16α-[18F]fluoro-17β-estradiol] showed a Kd of 94 nM.

Source of the values: publication PMC11335392, “Characterization of an Estrogen Receptor α-Selective ^18 F-Estradiol PET Tracer” (World Journal of Nuclear Medicine, 2024).
